Assay results reported in patent US8440641B2, “Phthalocyanine salt formulations” (Case Western Reserve University, priority 2009, dated 2013).
Several values for one entry are separate records, joined by “and”; a condition that tells them apart may be missing. Equal entries are not always repeated.

Key:
Assay type in all cases: physicochemical
[1] = Qualitative solubility in representative organic solvents; details: for solubility in CH2Cl2: CH2Cl2, qualitative; for solubility in dimethylformamide / solubility in ethanol / solubility in hexanes / solubility in toluene: qualitative
[2] = Chemical stability (air, chromatography); details: air
[3] = Photofading of phthalocyanines on irradiation with tungsten lamp light; details: toluene ~0.01 mM, 300 W tungsten lamp, 30 cm, room temperature
Experimental: Linolenate Ester of SiPc(OH)2, SiPc(OC(O)(CH2)6(CH2CH═CH)3 CH2CH3]2. A solution of the linolenate ester of SiPc(OH)2 in toluene (˜0.01 mM) in a capped quartz cuvette was irradiated at room temperature with light from a tungsten lamp (300 W) in a projector (Kodak […] III E, Kodak, Japan) with a lamp-to-cuvette separation of 30 cm. The UV-vis absorption of the solution at 684 nm was taken periodically and the percent ester remaining was calculated.
The compounds below Table 7 show phthalocyanines with (a) polyunsaturated ester ligands and (b) with polyunsaturated anions

[4] = Quantitative solubility (concentration) in H2O and aqueous dispersants
From the text: Disperstants are agents added to an aqueous solution to prevent clumping, and include a number of surfactant and surfactant-like molecules. […]

[5] = Salt concentration in polar and nonpolar solvents (Table 2); details: for solubility in hexanes and mineral oil: mineral oil (Nujol)

Compound	solubility in CH2Cl2 [1]	solubility in dimethylformamide [1]	solubility in ethanol [1]	solubility in hexanes [1]	solubility in toluene [1]	other results
CN(C)CCC[Si](C)(C)O[Si-2]123(F)n4c5c6ccccc6c4N=C4c6ccccc6C(=[N+]41)N=c1c4ccccc4c(n12)=NC1=[N+]3C(=N5)c2ccccc21 [Compound 1, FSiPcOSi(CH3)2(CH2)3N(CH3)2]	soluble	soluble	soluble	insoluble	moderately soluble	stability in air [2]: stable
CH3(OCH2CH2)˜45OC(O)(CH2)2C(O)OH [Compound 23]	soluble	soluble	soluble	insoluble	moderately soluble	–
CO[Si]1(O[Si](C)(C)CCCN(C)C)n2c3c4ccccc4c2N=C2N=C(N=c4c5ccccc5c(n41)=NC1=NC(=N3)c3ccccc31)c1ccccc12 (stereo not drawn) [Compound 4, CH3OSiPcOSi(CH3)2(CH2)3N(CH3)2]	soluble	soluble	soluble	insoluble	moderately soluble	stability in air [2]: stable
[CH3C(O)C(O)OSiPcOSi(CH3)2(CH2)3NH(CH3)2]^+Cl^− [Compound 29]	soluble	soluble	soluble	insoluble	moderately soluble	time of hydrolysis by air to Pc 4 [2]: ≤ 2 h
{SiPc[OSi(CH3)2(CH2)3NH(CH3)2]2}^2+[CH3CH2(CH═CHCH2)3(CH2)6COO^−]2 [linolenic salt]	–	–	–	–	–	% left ([3]; 12 hrs irradiation): 79%; % left ([3]; 20 hrs irradiation): 73%
CN(C)CCC[Si](C)(C)O[Si]1(O)n2c3c4ccccc4c2N=C2N=C(N=c4c5ccccc5c(n41)=NC1=NC(=N3)c3ccccc31)c1ccccc12.O=C(O)CCC(=O)OCCOCCOCCOCCOCCOCCOCCOCCOCCO (stereo not drawn) [Compound 20, [HOSiPcOSi(CH3)2(CH2)3NH(CH3)2]^+[H(OCH2CH2)9OC(O)(CH2)2C(O)O]^−]	soluble	soluble	soluble	insoluble	moderately soluble	–
H(OCH2CH2)˜9OC(O)(CH2)2C(O)OH [Compound 19]	soluble	soluble	soluble	insoluble	moderately soluble	–
[HOSiPcOSi(CH3)2(CH2)3NH(CH3)2]^+[4-C9H19C6H4-1-(OCH2CH2)˜20O(CH2)3SO3]^− [Compound 18]	soluble	soluble	soluble	insoluble	moderately soluble	salt conc in dilute aqueous Tween 80 ([4]; Tween 80 7.2 mg/mL ([…])): 874 µM; salt conc ([4]; aqueous Dow Corning 193 7.2 mg/mL, listed as Pc 245): 50 μg/mL and 70 μM; salt conc ([4]; aqueous PEG methyl ether 350 7.2 mg/mL (21 mM), listed as Pc 245): 9.3 μg/mL and 13 μM; salt conc ([4]; aqueous PEG methyl ether 750 7.2 mg/mL (9.6 mM), listed as Pc 245): 0.022 μg/mL and 0.031 μM; salt conc ([4]; aqueous PEG methyl ether 2000 7.2 mg/mL (3.6 mM), listed as Pc 245): 1.3 μg/mL and 1.8 μM; salt conc ([4]; aqueous PEG methyl ether 5000 7.2 mg/mL (1.4 mM), listed as Pc 245): 3.4 μg/mL and 4.8 μM; salt conc ([4]; aqueous potassium poly(ethylene glycol)-4-nonylphenyl-3-sulfopropyl ether 7.2 mg/mL (5.0 mM)): 1418 µM; salt conc ([4]; aqueous potassium poly(ethylene glycol)-4-nonylphenyl-3-sulfopropyl ether 7.2 mg/mL (5.0 mM), listed as Pc 245): ~1018 μg/mL and ~1418 μM; salt conc ([4]; aqueous povidone 7.2 mg/mL (0.18 mM), listed as Pc 245): 14 μg/mL and 19 μM
CCC(=O)O[Si-2]123(O[Si](C)(C)CCCN(C)C)n4c5c6ccccc6c4N=C4c6ccccc6C(=[N+]41)N=c1c4ccccc4c(n12)=NC1=[N+]3C(=N5)c2ccccc21 [Compound 3, CH3CH2C(O)OSiPcOSi(CH3)2(CH2)3N(CH3)2]	soluble	soluble	soluble	insoluble	moderately soluble	stability in air [2]: stable
CCC=CCC=CCC=CCC=CCC=CCC=CCCC(=O)O.CCC=CCC=CCC=CCC=CCC=CCC=CCCC(=O)O.CN(C)CCC[Si](C)(C)O[Si]1(O[Si](C)(C)CCCN(C)C)n2c3c4ccccc4c2N=C2N=C(N=c4c5ccccc5c(n41)=NC1=NC(=N3)c3ccccc31)c1ccccc12 [DHA salt, {SiPc[OSi(CH3)2(CH2)3NH(CH3)2]2}^2+[CH3CH2(CH═CHCH2)6CH2COO^−]2]	–	–	–	–	–	% left ([3]; 4 hrs irradiation): 72%; % left ([3]; 8 hrs irradiation): 62%
4-C9H19C6H4-1-(OCH2CH2)˜20O(CH2)3SO3H [Compound 17]	soluble	soluble	soluble	insoluble	moderately soluble	–
H(OCH2CH2)˜76OOC(CH2)2COOH [Compound 21]	soluble	soluble	soluble	insoluble	moderately soluble	–
CN(C)CCC[Si](C)(C)O[Si]1(O)n2c3c4ccccc4c2N=C2N=C(N=c4c5ccccc5c(n41)=NC1=NC(=N3)c3ccccc31)c1ccccc12 (stereo not drawn) [Pc 4, HOSiPcOSi(CH3)2(CH2)3N(CH3)2, reference compound]	–	–	–	–	–	Pc 4 conc ([4]; H2O, no dispersant): 0.0 μg/mL and 0.0 μM; Pc 4 conc ([4]; aqueous 1,6-hexanediol 7.2 mg/mL (61 mM)): 7.2 μg/mL and 10 μM; Pc 4 conc ([4]; aqueous Dow Corning 193 7.2 mg/mL): 0.29 μg/mL and 0.40 μM; Pc 4 conc ([4]; aqueous potassium poly(ethylene glycol)-4-nonylphenyl-3-sulfopropyl ether 7.2 mg/mL (5.7 mM)): 4.3 μg/mL and 6.0 μM; Pc 4 conc ([4]; aqueous povidone 7.2 mg/mL (0.18 mM)): 0.09 μg/mL and 0.12 μM
CN(C)CCC[Si](C)(C)O[Si]1(O)n2c3c4ccccc4c2N=C2N=C(N=c4c5ccccc5c(n41)=NC1=NC(=N3)c3ccccc31)c1ccccc12.CS(=O)(=O)O (stereo not drawn) [Compound 26, [HOSiPcOSi(CH3)2(CH2)3NH(CH3)2]^+[CH3SO3]^−]	–	–	–	–	–	salt concentration, […] aqueous Tween 80 [5]: 0.262 mM; solubility in aqueous solution ([5]; in words): show solubility; salt concentration, hexanes [5]: 0.002 mM; solubility in hexanes and mineral oil ([5]; in words): little; salt concentration, mineral oil [5]: 0.002 mM
[HOSiPcOSi(CH3)2(CH2)3NH(CH2)2]^+[C27H29N2O7S2]^− [Compound 14]	soluble	soluble	soluble	insoluble	moderately soluble	–
[HOSiPcOSi(CH3)2(CH2)3NH(CH3)2]^+[H(OCH2CH2)˜76O(O)C(CH2)2C(O)O]^− [Compound 22]	soluble	soluble	soluble	insoluble	moderately soluble	–
CN(C)CCC[Si](C)(C)O[Si]1(O)n2c3c4ccccc4c2N=C2N=C(N=c4c5ccccc5c(n41)=NC1=NC(=N3)c3ccccc31)c1ccccc12.COC(=O)c1ccccc1C(=O)O (stereo not drawn) [Compound 10, [HOSiPcOSi(CH3)2(CH2)3NH(CH2)2]^+[2-(CH3OC(O))C6H4C(O)O]^−]	soluble	soluble	soluble	insoluble	moderately soluble	–
SiPc[OC(O)(CH2)17]2 [stearic ester]	–	–	–	–	–	% left ([3]; 20 hrs irradiation): 100%
CN(C)CCC[Si](C)(C)O[Si]1(O)n2c3c4ccccc4c2N=C2N=C(N=c4c5ccccc5c(n41)=NC1=NC(=N3)c3ccccc31)c1ccccc12.CP(C)(=O)O (stereo not drawn) [Compound 13, [HOSiPcOSi(CH3)2(CH2)3NH(CH2)2]^+[(CH3)2P(O)O]^−]	soluble	soluble	soluble	insoluble	moderately soluble	–
SiPc(OC(O)(CH2)6(CH2CH═CH)2(CH2)4CH3]2 [linoleic ester]	–	–	–	–	–	% left ([3]; 4 hrs irradiation): 95%; % left ([3]; 12 hrs irradiation): 95%; % left ([3]; 20 hrs irradiation): 94%
[HOSiPcOSi(CH3)2(CH2)3NH(CH3)2]^+[CH3(OCH2CH2)˜45OC(O)(CH2)2C(O)O]^− [Compound 24]	soluble	soluble	soluble	insoluble	moderately soluble	–
[HOSiPcOSi(CH3)2(CH2)3NH(CH2)2]^+[C33H53O5]^− [Compound 11]	soluble	soluble	soluble	slightly soluble	moderately soluble	salt concentration, […] aqueous Tween 80 [5]: 0.004 mM; solubility in aqueous solution ([5]; in words): only slight solubility; salt concentration, hexanes [5]: 0.065 mM; solubility in hexanes and mineral oil ([5]; in words): significant solubility; salt concentration, mineral oil [5]: 0.029 mM; solubility in petrolatum ([5]; petrolatum (Vaseline), in words): significant solubility
